One assay addresses T1, Kv7.2/7.3 (Homo sapiens, UniProt O43525+O43526). The assay can be described thus: Kv7.2/7.3 Thallium Flux Assay. The class given is cell-based. The arrangement: host or cells: HEK cells, tetracycline-inducible expression. The following applies: read-out: Kv7.2/7.3 Activity: EC50 of Kv7.2/Kv7.3 activation. The text has this:
The Thallium Flux Assay is used as a surrogate indicator of potassium channel activity.
The experimental protocol was adapted from the FluxOR™ II Green Potassium Ion Channel Assay User Guide (Pub. No. MAN0016084, Invitrogen). Conditions were optimized for the Kv7.2/7.3 cell line.
The hKV7.2/7.3 cell line was obtained from Chantest (Cleveland, Ohio 44128) cat. #CT6147.
Kv7.2/7.3 cells were maintained in a media containing DMEM/F12; 50/50 (GIBCO cat. #11330), 10% Fetal Bovine Serum (FBS) (GIBCO cat. #26140), 100 units/mL Penicillin-Streptomycin (GIBCO cat. #15140), 0.005 mg/ml Blasticidin (SIGMA 15205), 0.5 mg/mL Geneticin (GIBCO cat. #10131), and 0.1 mg/mL Zeocin (GIBCO cat. #R25001). One day prior to experimentation, cells were plated in 96 well clear bottom plates (Corning cat. #353219) in a media without Blasticidin, Geneticin, or Zeocin. Channel expression was induced by adding tetracycline (Bioline cat. #BIO87030) at a final concentration of 10 ng/mL.
The test compound is diluted in a mixture of 0.1% DMSO/extracellular solution with an eight-point concentration range from 0.014 μM to 30 μM. Serial dilutions were made on a Biomek NXP (BECKMAN COULTER).
Measurement and Data Analysis:
A plate reader (Enspire, Perkin Elmer) is used to characterize the ion-channel modulating properties of novel compounds using an excitation wavelength of 475 nm and an emission wavelength of 530 nm. After a 15 sec baseline measurement, the stimulus buffer containing thallium and potassium is injected. A final endpoint measure is taken after 90 sec. Responses are normalized to positive control (retigabine, 30 µM max). Mean normalized responses at each concentration tested are fit to the standard Hill equation to generate an EC50 and maximal response.
As for `CC(C)(n1c(NC(=O)CC2CC(F)(F)C2(F)F)nc2ccc(C#N)cc21)C(F)(F)F` (single isomer, unassigned) [Example 488, N-(6-cyano-1-(1,1,1-trifluoro-2-methylpropan-2-yl)-1H-benzo[d]imidazol-2-yl)-2-(2,2,3,3-tetrafluorocyclobutyl)acetamide], the EC50 was less than 1000 nM.
Turning to `CC(C(=O)Nc1nc2ccc(C(C)(C)O)cc2n1C1(C)CCC1)C1(C(F)(F)F)CC1` (single isomer, unassigned) [Example 489, N-(6-(2-hydroxypropan-2-yl)-1-(1-methylcyclobutyl)-1H-benzo[d]imidazol-2-yl)-2-(1-(trifluoromethyl)cyclopropyl) propanamide], the EC50 is less than 1000 nM.
In the case of `CC(C(=O)Nc1nc2ccc(C(C)(C)O)cc2n1C1(C)CCC1)C(C)(C)C(F)(F)F` (single isomer, unassigned) [Example 492, 4,4,4-trifluoro-N-(6-(2-hydroxypropan-2-yl)-1-(1-methylcyclobutyl)-1H-benzo[d]imidazol-2-yl)-2,3,3-trimethylbutanamide], the EC50 was less than 1000 nM.
With `CC1(n2c(NC(=O)CC3CC(F)(F)C3(F)F)nc3ccc(C#N)c(OC(F)(F)F)c32)CCC1` (single isomer, unassigned) [Example 493, N-(6-cyano-1-(1-methylcyclobutyl)-7-(trifluoromethoxy)-1H-benzo[d]imidazol-2-yl)-2-(2,2,3,3-tetrafluorocyclobutyl)acetamide], the EC50 is less than 1000 nM.
Consider `CC(C(=O)Nc1nc2c(F)cc(C#N)cc2n1C1(C)CCC1)C1(C(F)(F)F)CC1` (single isomer, unassigned) [Example 494, N-(6-cyano-4-fluoro-1-(1-methylcyclobutyl)-1H-benzo[d]imidazol-2-yl)-2-(1-(trifluoromethyl)cyclopropyl)propanamide], for which the EC50 is less than 1000 nM.

The target in the next assay is T1, Kv7.2/7.3. In words: Kv7.2/7.3 Activation Assay, QPatch single concentration screen. The class given is cell-based. The conditions noted are these: Kv7.2/Kv7.3 co-expressing HEK cells, compound concentration 3 μM, steady-state current at end of 2 s pulse to −30 mV. The arrangement: host or cells: HEK cells, tetracycline-inducible expression; key: 1.2-2.9 (+); 3-3.9 (++); >4 (+++) fold increase over baseline; O represents open channel at holding potential. The method in brief: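 Tetracycline-induced HEK cells expressing human Kv7.2/7.3, recorded 24 h post-induction by automated planar patch clamp. From −80 mV, 2 s steps to −30 mV then 100 ms to −120 mV; compound tested at 3 μM (0.1% DMSO). Steady-state current at end of −30 mV step gives fold increase over baseline.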
(In patch-clamp work, channel activity is measured electrically.)
Take `CC(C)(C)CC(=O)Nc1nc2c(C(F)(F)F)cc(Br)cc2n1C1CCC1` [Example 477, N-(6-bromo-1-cyclobutyl-4-(trifluoromethyl)-1H-benzo[d]imidazol-2-yl)-3,3-dimethylbutanamide]: the “Kv7.2/7.3 Activity: increase over baseline in current” value is “+++ (>4 (+++) fold increase over baseline)”.
The same measure, in the same setting: the result for `CC(C)(C)CC(=O)Nc1nc2c(F)cc(C(O)(CF)CF)cc2n1C1CCC1` [Example 479, N-(1-cyclobutyl-6-(1,3-difluoro-2-hydroxypropan-2-yl)-4-fluoro-1H-benzo[d]imidazol-2-yl)-3,3-dimethylbutanamide] reads “++ (3-3.9 (++))”.
On to `CC(CF)(CF)CC(=O)Nc1nc2c(F)cc(C(C)(C)O)cc2n1C1(C)CCC1` [Example 480, 4-fluoro-N-(4-fluoro-6-(2-hydroxypropan-2-yl)-1-(1-methylcyclobutyl)-1H-benzo[d]imidazol-2-yl)-3-(fluoromethyl)-3-methylbutanamide], for which the “Kv7.2/7.3 Activity: increase over baseline in current” value was “O”.
On the same count and under the same terms, the result for `CC(C)(C)CC(=O)Nc1nc2ccc(C(C)(C)O)c(F)c2n1C1(C)CCC1` [Example 481, N-(7-fluoro-6-(2-hydroxypropan-2-yl)-1-(1-methylcyclobutyl)-1H-benzo[d]imidazol-2-yl)-3,3-dimethylbutanamide] reads “O”; that for `CC(C)(CC(=O)Nc1nc2c(F)cc(C#N)cc2n1C(C)(C)C)C1CC1` [Example 482, N-(1-(tert-butyl)-6-cyano-4-fluoro-1H-benzo[d]imidazol-2-yl)-3-cyclopropyl-3-methylbutanamide], “+++ (>4 (+++) fold increase over baseline)”.
The same measure, in the same setting: with `CC(C)(CC(=O)Nc1nc2ccc(C#N)cc2n1C(C)(C)C(F)(F)F)C(F)(F)F` [Example 484, N-(6-cyano-1-(1,1,1-trifluoro-2-methylpropan-2-yl)-1H-benzo[d]imidazol-2-yl)-4,4,4-trifluoro-3,3-dimethylbutanamide] the entry was “+ (1.2-2.9 (+))”.
